Where “and” joins values, the source holds several entries; their conditions need not be identical. Identical values can stand only once. Like-named read-outs stand apart in the source and are kept apart here.
Assays:
MCF-7 = assay: In vitro anti-estrogenic activity assay, MCF-7
[1] = test system: HCT-116, MDA-MB-231, HeLa, and MCF-7; assay: MTT cytotoxicity assay, ranges stated over several cell lines; format: cell-based; details: Homo sapiens, range over the compounds named
Method: Subsequently, 100 µL of dimethyl sulfoxide was introduced to dissolve the insoluble formazan.

[2] = biological target: T1, aromatase (CYP19A, EC 1.14.14.14) (Homo sapiens, UniProt P11511); assay: biochemical; details: individual Data 1-3
T1 construct: Microsomal samples were isolated from tissue using the Microsome Isolation Kit; tissue BioVision K983-100; host or cells: microsomes from an unnamed tissue
T1 sequence (P11511 1-503): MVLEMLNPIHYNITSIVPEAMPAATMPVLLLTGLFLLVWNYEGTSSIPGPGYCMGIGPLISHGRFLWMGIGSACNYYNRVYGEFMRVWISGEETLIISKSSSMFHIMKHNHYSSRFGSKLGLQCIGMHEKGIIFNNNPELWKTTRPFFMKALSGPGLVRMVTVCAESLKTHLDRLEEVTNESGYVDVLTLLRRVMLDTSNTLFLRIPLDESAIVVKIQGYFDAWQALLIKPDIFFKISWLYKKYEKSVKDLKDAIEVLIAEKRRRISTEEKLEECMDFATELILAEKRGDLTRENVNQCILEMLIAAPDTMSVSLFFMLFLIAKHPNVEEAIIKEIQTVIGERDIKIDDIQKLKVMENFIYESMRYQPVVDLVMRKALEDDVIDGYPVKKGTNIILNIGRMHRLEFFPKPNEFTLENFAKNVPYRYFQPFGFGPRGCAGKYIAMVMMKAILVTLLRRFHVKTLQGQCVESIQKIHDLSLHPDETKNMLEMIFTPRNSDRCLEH
Method: In vitro aromatase assay was performed using the BioVision Aromatase Activity Assay Kit (Catalog # K983-100; BioVision, Milpitas, CA, USA). Microsomal samples were isolated from tissue using the Microsome Isolation Kit (Cat. #K249; BioVision, Milpitas, CA, USA). A standard curve was established by diluting the Fluorescence Standard provided in the kit to create a 0.5 pmole/µL solution, followed by setting up a series of standards in a white 96-well plate, adjusting the total volume to 100 µL with aromatase assay buffer. For each reaction well, a 2X concentrated mix was prepared by adding 2–48 µL of the microsomal sample and 2 µL of the NADPH generating system, bringing the final volume to 50 µL with aromatase assay buffer. Background controls (no enzyme) and positive controls (with recombinant aromatase) were included. […] After a 10 min incubation at 37 °C, 30 µL of the substrate/NADP+ mixture was added to each well, and fluorescence was measured immediately in kinetic mode for 60 min at 37 °C. Finally, the change in fluorescence was calculated to determine the specific activity of aromatase using the formula provided in the kit protocol.

EGFR = EGFR (Homo sapiens, UniProt P00533); assay: In vitro protein kinase inhibition assay (ELISA kit), EGFR
VEGFR-2 = VEGFR-2 (Homo sapiens, UniProt P35968); assay: In vitro protein kinase inhibition assay (ELISA kit), VEGFR-2
HER2 = HER2 (Homo sapiens, UniProt P04626); assay: In vitro protein kinase inhibition assay (ELISA kit), HER2
MCF-7a = assay: In vitro anti-estrogenic activity assay, MCF-7a
CDK2 = CDK2 (Homo sapiens, UniProt P24941); assay: In vitro protein kinase inhibition assay (ELISA kit), CDK2
[3] = cell count relative to the control (17β-E2)

HER2, sequence (P04626 23-1255): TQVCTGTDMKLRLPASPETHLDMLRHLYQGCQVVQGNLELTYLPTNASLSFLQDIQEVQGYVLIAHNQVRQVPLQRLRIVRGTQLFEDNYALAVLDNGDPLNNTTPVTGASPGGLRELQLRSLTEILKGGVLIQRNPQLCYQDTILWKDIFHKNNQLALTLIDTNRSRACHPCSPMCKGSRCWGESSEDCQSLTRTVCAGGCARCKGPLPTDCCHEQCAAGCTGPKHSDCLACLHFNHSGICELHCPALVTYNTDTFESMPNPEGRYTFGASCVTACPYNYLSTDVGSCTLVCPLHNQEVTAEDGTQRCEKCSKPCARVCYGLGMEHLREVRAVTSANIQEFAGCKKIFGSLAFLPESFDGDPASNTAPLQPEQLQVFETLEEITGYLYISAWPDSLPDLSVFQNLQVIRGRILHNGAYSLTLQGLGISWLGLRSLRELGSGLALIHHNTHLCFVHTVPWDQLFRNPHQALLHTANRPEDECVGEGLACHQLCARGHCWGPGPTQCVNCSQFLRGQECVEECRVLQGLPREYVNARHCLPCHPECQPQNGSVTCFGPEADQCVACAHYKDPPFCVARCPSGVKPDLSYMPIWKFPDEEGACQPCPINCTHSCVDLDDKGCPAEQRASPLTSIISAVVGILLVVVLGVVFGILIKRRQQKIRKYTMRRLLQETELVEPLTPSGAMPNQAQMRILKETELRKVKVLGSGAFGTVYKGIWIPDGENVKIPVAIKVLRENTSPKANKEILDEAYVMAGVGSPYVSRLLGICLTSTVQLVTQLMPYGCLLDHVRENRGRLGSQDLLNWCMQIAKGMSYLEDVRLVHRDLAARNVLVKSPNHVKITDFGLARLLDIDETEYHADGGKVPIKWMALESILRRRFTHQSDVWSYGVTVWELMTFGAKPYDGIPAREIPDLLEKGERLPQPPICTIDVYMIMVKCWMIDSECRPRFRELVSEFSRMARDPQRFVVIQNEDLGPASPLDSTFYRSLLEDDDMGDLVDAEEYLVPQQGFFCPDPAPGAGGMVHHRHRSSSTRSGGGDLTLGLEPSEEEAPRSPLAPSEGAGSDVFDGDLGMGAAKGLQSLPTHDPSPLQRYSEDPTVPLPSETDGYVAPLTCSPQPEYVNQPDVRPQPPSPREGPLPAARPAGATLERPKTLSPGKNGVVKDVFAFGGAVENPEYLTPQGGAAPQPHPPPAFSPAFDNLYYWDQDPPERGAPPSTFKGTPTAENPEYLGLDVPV
EGFR, sequence (P00533 25-1210): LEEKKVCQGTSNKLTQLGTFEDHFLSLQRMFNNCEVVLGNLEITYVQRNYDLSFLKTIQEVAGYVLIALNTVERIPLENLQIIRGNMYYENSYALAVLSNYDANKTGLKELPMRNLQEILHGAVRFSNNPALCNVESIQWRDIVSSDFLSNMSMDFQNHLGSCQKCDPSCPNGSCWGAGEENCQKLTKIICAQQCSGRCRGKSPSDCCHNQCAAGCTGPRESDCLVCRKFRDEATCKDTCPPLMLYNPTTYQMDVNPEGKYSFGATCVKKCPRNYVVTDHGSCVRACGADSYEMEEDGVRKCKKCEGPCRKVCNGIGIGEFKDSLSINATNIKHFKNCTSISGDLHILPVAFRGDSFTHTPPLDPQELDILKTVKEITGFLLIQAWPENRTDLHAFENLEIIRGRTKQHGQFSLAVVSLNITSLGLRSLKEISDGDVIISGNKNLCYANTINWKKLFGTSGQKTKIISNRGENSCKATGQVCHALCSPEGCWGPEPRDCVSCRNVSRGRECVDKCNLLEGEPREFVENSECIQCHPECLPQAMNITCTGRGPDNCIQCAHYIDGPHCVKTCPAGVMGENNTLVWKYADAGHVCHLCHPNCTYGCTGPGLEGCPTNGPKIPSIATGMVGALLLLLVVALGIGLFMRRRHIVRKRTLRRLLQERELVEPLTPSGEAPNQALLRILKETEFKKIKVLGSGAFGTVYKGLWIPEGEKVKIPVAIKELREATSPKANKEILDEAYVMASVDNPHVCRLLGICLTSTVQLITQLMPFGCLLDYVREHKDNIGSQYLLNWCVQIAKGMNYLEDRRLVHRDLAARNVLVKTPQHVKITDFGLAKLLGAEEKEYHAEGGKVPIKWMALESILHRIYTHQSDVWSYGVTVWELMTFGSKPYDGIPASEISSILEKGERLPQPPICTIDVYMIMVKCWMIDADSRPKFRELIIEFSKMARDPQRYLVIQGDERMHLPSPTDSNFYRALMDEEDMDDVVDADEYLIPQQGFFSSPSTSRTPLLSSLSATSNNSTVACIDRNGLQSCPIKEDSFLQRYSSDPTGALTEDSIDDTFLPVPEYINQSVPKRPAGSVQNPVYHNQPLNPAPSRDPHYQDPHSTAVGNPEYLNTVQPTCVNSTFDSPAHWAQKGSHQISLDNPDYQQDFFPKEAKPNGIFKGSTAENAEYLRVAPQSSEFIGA
VEGFR-2, sequence (P35968 20-1356): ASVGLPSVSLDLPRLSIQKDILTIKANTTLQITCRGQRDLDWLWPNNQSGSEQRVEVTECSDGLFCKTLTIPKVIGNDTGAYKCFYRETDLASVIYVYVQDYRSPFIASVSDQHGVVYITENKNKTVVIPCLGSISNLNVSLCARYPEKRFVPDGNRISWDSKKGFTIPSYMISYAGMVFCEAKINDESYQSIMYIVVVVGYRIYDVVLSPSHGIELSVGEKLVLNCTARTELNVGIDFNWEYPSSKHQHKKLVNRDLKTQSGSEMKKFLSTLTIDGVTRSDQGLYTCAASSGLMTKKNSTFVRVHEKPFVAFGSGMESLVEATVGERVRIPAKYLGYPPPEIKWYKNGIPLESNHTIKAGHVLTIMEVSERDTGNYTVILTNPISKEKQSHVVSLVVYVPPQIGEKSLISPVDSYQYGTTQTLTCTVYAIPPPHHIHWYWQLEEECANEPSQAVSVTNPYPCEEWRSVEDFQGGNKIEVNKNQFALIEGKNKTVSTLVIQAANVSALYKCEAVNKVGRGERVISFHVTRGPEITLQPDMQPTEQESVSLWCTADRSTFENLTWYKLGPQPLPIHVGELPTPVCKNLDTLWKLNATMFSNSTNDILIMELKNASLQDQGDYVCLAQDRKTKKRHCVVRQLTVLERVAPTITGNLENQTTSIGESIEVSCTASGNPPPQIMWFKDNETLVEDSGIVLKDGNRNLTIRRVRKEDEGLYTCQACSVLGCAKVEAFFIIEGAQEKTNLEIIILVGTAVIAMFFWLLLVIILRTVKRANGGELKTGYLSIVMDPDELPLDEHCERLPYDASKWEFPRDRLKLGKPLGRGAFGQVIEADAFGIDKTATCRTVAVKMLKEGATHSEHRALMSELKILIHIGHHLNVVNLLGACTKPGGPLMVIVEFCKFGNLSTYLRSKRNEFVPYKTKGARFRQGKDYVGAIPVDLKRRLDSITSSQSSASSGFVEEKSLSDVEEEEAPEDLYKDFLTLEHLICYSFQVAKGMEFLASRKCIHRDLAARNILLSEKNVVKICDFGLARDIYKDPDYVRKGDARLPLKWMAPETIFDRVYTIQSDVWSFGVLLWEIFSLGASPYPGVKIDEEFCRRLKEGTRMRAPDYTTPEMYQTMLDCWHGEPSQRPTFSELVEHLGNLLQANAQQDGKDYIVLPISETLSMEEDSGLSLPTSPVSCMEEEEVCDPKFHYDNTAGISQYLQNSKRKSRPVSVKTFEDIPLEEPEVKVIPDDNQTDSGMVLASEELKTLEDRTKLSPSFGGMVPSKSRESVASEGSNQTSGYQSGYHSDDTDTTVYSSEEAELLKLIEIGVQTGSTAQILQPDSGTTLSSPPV

With `O=C(/C=C/c1ccccc1)c1ccccc1` [Compound 4a, (E)-Chalcone] the “Cell Proliferation MCF-7 %” value (MCF-7; [3]) was 79%, the “Cell Proliferation MCF-7 Cell Count” value (MCF-7; mean ± SD of triplicate) was 14,553 ± 518 and the “Reduction of growth/cell count (inhibition) in MCF-7” value (MCF-7; relative to control) was 21%. The IC50 ([1]; HCT-116 and HeLa, read-out: IC50 values, range against HCT-116 and HeLa) was 6.59 to 22.6 µM, the IC50 ([1]; MDA-MB-231 and MCF-7, read-out: IC50 values, range against MDA-MB-231 and MCF-7) was 2.08 to 13.6 µM and the “Inhibition (%) Aromatase” value ([2]; 0.01 µM) was 19.87% and 20.56%. The “Inhibition (%) Aromatase” value ([2]; 0.1 µM) was 28.65% and 29.76%, the “Inhibition (%) Aromatase” value ([2]; 1 µM) was 63% and 62.76% and the “Inhibition (%) Aromatase” value ([2]; 10 µM) was 82.87% and 83.45%. The “Inhibition (%) Aromatase” value ([2]; 100 µM) was 92.23% and 94%, the inhibition at 0.01 µM ([2]; read-out: Inhibition (%) Aromatase, 0.01 µM) was 20% and the inhibition at 0.1 µM ([2]; read-out: Inhibition (%) Aromatase, 0.1 µM) was 29%. For the same molecule, the inhibition at 1 µM ([2]; read-out: Inhibition (%) Aromatase, 1 µM) was 64%, the inhibition at 10 µM ([2]; read-out: Inhibition (%) Aromatase, 10 µM) was 83% and the inhibition at 100 µM ([2]; read-out: Inhibition (%) Aromatase, 100 µM) was 93%. For the same molecule, the IC50 (EGFR) was 367 ± 12 nM, the “Inhibition (%) EGFR” value (EGFR; 0.01 µM, individual Data 1-3) was 10.8% and 13.9% and the “Inhibition (%) EGFR” value (EGFR; 0.1 µM, individual Data 1-3) was 34.2% and 37.1%. The “Inhibition (%) EGFR” value (EGFR; 1 µM, individual Data 1-3) was 68.2% and 66.7%, the “Inhibition (%) EGFR” value (EGFR; 10 µM, individual Data 1-3) was 83.2% and 86.9% and the “Inhibition (%) EGFR” value (EGFR; 100 µM, individual Data 1-3) was 93.9% and 94.2%. The inhibition at 0.01 µM (EGFR; read-out: Inhibition (%) EGFR, 0.01 µM, individual Data 1-3) was 12.3%, the inhibition at 0.1 µM (EGFR; read-out: Inhibition (%) EGFR, 0.1 µM, individual Data 1-3) was 35.8% and the inhibition at 1 µM (EGFR; read-out: Inhibition (%) EGFR, 1 µM, individual Data 1-3) was 69.9%. For the same molecule, the inhibition at 10 µM (EGFR; read-out: Inhibition (%) EGFR, 10 µM, individual Data 1-3) was 85.6%, the inhibition at 100 µM (EGFR; read-out: Inhibition (%) EGFR, 100 µM, individual Data 1-3) was 95.1% and the IC50 (VEGFR-2) was 1550 ± 53 nM. For the same molecule, the “Inhibition (%) VEGFR2” value (VEGFR-2; 0.01 µM, individual Data 1-3) was 4.43% and 2.43% and 5.78%, the “Inhibition (%) VEGFR2” value (VEGFR-2; 0.1 µM, individual Data 1-3) was 19.78% and 23.4% and the “Inhibition (%) VEGFR2” value (VEGFR-2; 1 µM, individual Data 1-3) was 40.5% and 38.5%. For the same molecule, the “Inhibition (%) VEGFR2” value (VEGFR-2; 10 µM, individual Data 1-3) was 69% and 76.6%, the “Inhibition (%) VEGFR2” value (VEGFR-2; 100 µM, individual Data 1-3) was 86.5% and 92.5% and the inhibition at 0.1 µM (VEGFR-2; read-out: Inhibition (%) VEGFR2, 0.1 µM, individual Data 1-3) was 21.6%. The inhibition at 1 µM (VEGFR-2; read-out: Inhibition (%) VEGFR2, 1 µM, individual Data 1-3) was 43.5%, the inhibition at 10 µM (VEGFR-2; read-out: Inhibition (%) VEGFR2, 10 µM, individual Data 1-3) was 73.3% and the inhibition at 100 µM (VEGFR-2; read-out: Inhibition (%) VEGFR2, 100 µM, individual Data 1-3) was 89.2%. For the same molecule, the IC50 (HER2) was 691 ± 27 nM, the “Inhibition (%) Her2” value (HER2; 0.01 µM, individual Data 1-3) was 10.6% and 14.2% and the “Inhibition (%) Her2” value (HER2; 0.1 µM, individual Data 1-3) was 21.8% and 24.9%. The “Inhibition (%) Her2” value (HER2; 1 µM, individual Data 1-3) was 60.9% and 59.5%, the “Inhibition (%) Her2” value (HER2; 10 µM, individual Data 1-3) was 78% and 81.2% and the “Inhibition (%) Her2” value (HER2; 100 µM, individual Data 1-3) was 89.9% and 93.1%. The inhibition at 0.01 µM (HER2; read-out: Inhibition (%) Her2, 0.01 µM, individual Data 1-3) was 12.3%, the inhibition at 0.1 µM (HER2; read-out: Inhibition (%) Her2, 0.1 µM, individual Data 1-3) was 23.8% and the inhibition at 1 µM (HER2; read-out: Inhibition (%) Her2, 1 µM, individual Data 1-3) was 62.2%. The inhibition at 10 µM (HER2; read-out: Inhibition (%) Her2, 10 µM, individual Data 1-3) was 79.1%, the inhibition at 100 µM (HER2; read-out: Inhibition (%) Her2, 100 µM, individual Data 1-3) was 91% and the “Cell Proliferation MCF-7a %” value (MCF-7a; [3]) was 102%. For the same molecule, the “Cell Proliferation MCF-7a Cell Count” value (MCF-7a; mean ± SD of triplicate) was 21,155 ± 611, the “Inhibition in MCF-7a” value (MCF-7a; relative to control) was “no inhibition” and the IC50 (CDK2) was 840 ± 26 nM. For the same molecule, the “Inhibition (%) CDK2” value (CDK2; 0.01 µM, individual Data 1-3) was 9.7% and 12%, the “Inhibition (%) CDK2” value (CDK2; 0.1 µM, individual Data 1-3) was 25.6% and 28.78% and the “Inhibition (%) CDK2” value (CDK2; 1 µM, individual Data 1-3) was 53.8% and 52.78%. The “Inhibition (%) CDK2” value (CDK2; 10 µM, individual Data 1-3) was 72.98% and 76%, the “Inhibition (%) CDK2” value (CDK2; 100 µM, individual Data 1-3) was 88.7% and 92.7% and the inhibition at 0.01 µM (CDK2; read-out: Inhibition (%) CDK2, 0.01 µM, individual Data 1-3) was 11.8%. The inhibition at 0.1 µM (CDK2; read-out: Inhibition (%) CDK2, 0.1 µM, individual Data 1-3) was 27.7%, the inhibition at 1 µM (CDK2; read-out: Inhibition (%) CDK2, 1 µM, individual Data 1-3) was 54% and the inhibition at 10 µM (CDK2; read-out: Inhibition (%) CDK2, 10 µM, individual Data 1-3) was 74.1%. For the same molecule, the inhibition at 100 µM (CDK2; read-out: Inhibition (%) CDK2, 100 µM, individual Data 1-3) was 90.3%.
